Target: T1, human recombinant HDAC6 (Homo sapiens, UniProt Q9UBN7)
T1 construct: purchased Calbiochem 382180
T1 sequence (Q9UBN7 1-1215): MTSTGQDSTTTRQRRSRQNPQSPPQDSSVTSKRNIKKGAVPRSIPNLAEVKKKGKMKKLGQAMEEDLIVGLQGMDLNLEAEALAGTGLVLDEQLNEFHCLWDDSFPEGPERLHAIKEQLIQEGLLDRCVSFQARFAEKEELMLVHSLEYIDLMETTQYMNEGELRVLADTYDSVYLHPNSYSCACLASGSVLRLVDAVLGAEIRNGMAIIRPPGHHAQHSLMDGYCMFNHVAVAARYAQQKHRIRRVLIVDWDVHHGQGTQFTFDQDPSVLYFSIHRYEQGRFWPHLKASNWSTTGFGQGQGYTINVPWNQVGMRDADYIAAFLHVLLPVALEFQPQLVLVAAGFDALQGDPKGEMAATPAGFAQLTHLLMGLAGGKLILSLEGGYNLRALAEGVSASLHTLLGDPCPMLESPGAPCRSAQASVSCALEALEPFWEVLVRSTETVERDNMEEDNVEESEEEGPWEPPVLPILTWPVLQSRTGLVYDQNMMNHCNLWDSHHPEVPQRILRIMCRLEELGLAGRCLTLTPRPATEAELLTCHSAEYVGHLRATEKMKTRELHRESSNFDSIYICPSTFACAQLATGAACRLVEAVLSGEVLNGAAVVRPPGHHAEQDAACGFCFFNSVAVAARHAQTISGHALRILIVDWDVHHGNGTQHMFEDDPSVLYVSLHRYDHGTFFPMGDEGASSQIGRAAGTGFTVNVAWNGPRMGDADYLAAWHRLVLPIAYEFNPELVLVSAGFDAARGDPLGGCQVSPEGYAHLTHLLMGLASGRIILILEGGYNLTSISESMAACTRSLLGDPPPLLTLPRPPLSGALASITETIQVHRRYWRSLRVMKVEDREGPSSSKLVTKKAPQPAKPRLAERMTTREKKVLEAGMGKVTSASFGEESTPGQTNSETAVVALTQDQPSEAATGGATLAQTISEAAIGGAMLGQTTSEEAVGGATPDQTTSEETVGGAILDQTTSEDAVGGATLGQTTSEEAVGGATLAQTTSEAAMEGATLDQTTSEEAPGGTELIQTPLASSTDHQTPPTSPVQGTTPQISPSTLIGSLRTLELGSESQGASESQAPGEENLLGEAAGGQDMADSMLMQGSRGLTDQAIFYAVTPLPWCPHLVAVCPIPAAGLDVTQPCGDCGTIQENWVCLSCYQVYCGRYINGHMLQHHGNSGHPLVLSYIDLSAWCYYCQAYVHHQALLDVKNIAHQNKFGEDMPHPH
Test: HDAC6 enzyme activity inhibition assay (HDAC Fluorimetric Drug Discovery Kit)
Assay type: biochemical
Conditions: for HDAC6 selectivity (fold): HDAC1 vs HDAC6; for IC50: same protocol as the HDAC1 enzyme activity test
How it was run: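 Fluorescence (Ex 360, Em 460) after 30 min developer step; IC50 from dose-response. Reaction: 0.3 μg recombinant enzyme, 10 μM Fluor de Lys-SIRT1 substrate, 5-fold compound dilutions, 60 min at 30° C. Same protocol for both isoforms.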

Row | Structure (SMILES) | HDAC6 selectivity (fold) | IC50
1 | CS(=O)(=O)N(Cc1ccc(-c2nnc(C(F)F)o2)cc1F)c1ccc2c(c1)CCC2 [Compound 11747, N-(4-(5-(difluoromethyl)-1,3,4-oxadiazol-2-yl)-2-fluorobenzyl)-N-(2,3-dihydro-1H-inden-5-yl)methanesulfonamide] | 1050 fold | 95.2 nM
2 | CS(=O)(=O)N(Cc1ccc(-c2nnc(C(F)F)o2)cc1F)[C@@H]1CCc2ccccc21 [Compound 11748, (R)—N-(4-(5-(difluoromethyl)-1,3,4-oxadiazol-2-yl)-2-fluorobenzyl)-N-(2,3-dihydro-1H-inden-1-yl)methanesulfonamide] | 230 fold | 433 nM
3 | CS(=O)(=O)N(Cc1ccc(-c2nnc(C(F)F)o2)cc1F)[C@H]1CCc2ccccc21 [Compound 11749, (S)—N-(4-(5-(difluoromethyl)-1,3,4-oxadiazol-2-yl)-2-fluorobenzyl)-N-(2,3-dihydro-1H-inden-1-yl)methanesulfonamide] | 255 fold | 391 nM
4 | CN1CCc2nc(N(Cc3ccc(-c4nnc(C(F)F)o4)cc3)S(C)(=O)=O)sc2C1 [Compound 11750, N-(4-(5-(difluoromethyl)-1,3,4-oxadiazol-2-yl)benzyl)-N-(5-methyl-4,5,6,7-tetrahydrothiazolo[5,4-c]pyridin-2-yl)methanesulfonamide] | 77 fold | 1290 nM
5 | O=C(CN1CCN(CCS(=O)(=O)N(Cc2ccc(-c3nnc(C(F)F)o3)cc2)c2ccccc2)CC1)N1CCOCC1 [Compound 11751, N-(4-(5-(difluoromethyl)-1,3,4-oxadiazol-2-yl)benzyl)-2-(4-(2-morpholino-2-oxoethyl)piperazin-1-yl)-N-phenylethane-1-sulfonamide] | 1170 fold | 85.4 nM
6 | O=S(=O)(CCN1Cc2ccccc2C1)N(Cc1ccc(-c2nnc(C(F)F)o2)cc1)c1ccccc1 [Compound 11756, N-(4-(5-(difluoromethyl)-1,3,4-oxadiazol-2-yl)benzyl)-2-(isoindolin-2-yl)-N-phenylethane-1-sulfonamide] | 264 fold | 378 nM
7 | COCCN1CCN(CCS(=O)(=O)N(Cc2ccc(-c3nnc(C(F)F)o3)cc2)c2ccccc2)CC1 [Compound 11758, N-(4-(5-(difluoromethyl)-1,3,4-oxadiazol-2-yl)benzyl)-2-(4-(2-methoxyethyl)piperazin-1-yl)-N-phenylethane-1-sulfonamide] | 1039 fold | 96.2 nM
8 | CC(=O)N1CCCN(CCS(=O)(=O)N(Cc2ccc(-c3nnc(C(F)F)o3)cc2)c2ccccc2)CC1 [Compound 11759, 2-(4-acetyl-1,4-diazepan-1-yl)-N-(4-(5-(difluoromethyl)-1,3,4-oxadiazol-2-yl)benzyl)-N-phenylethane-1-sulfonamide] | 984 fold | 102 nM
9 | O=S(=O)(CCN1CCCN(Cc2ccccc2)CC1)N(Cc1ccc(-c2nnc(C(F)F)o2)cc1)c1ccccc1 [Compound 11760, 2-(4-benzyl-1,4-diazepan-1-yl)-N-(4-(5-(difluoromethyl)-1,3,4-oxadiazol-2-yl)benzyl)-N-phenylethane-1-sulfonamide] | 508 fold | 197 nM
10 | O=C(C1CC1)N1CCN(CCS(=O)(=O)N(Cc2ccc(-c3nnc(C(F)F)o3)cc2)c2ccccc2)CC1 [Compound 11761, 2-(4-(cyclopropanecarbonyl)piperazin-1-yl)-N-(4-(5-(difluoromethyl)-1,3,4-oxadiazol-2-yl)benzyl)-N-phenylethane-1-sulfonamide] | 976 fold | 102 nM
11 | O=S(=O)(CCN1CCC(Cc2ccccc2)CC1)N(Cc1ccc(-c2nnc(C(F)F)o2)cc1)c1ccccc1 [Compound 11762, 2-(4-benzylpiperidin-1-yl)-N-(4-(5-(difluoromethyl)-1,3,4-oxadiazol-2-yl)benzyl)-N-phenylethane-1-sulfonamide] | 100 fold | 1000 nM
12 | CCN(CCS(=O)(=O)N(Cc1ccc(-c2nnc(C(F)F)o2)cc1)c1ccccc1)Cc1ccccc1 [Compound 11765, 2-(benzyl(ethyl)amino)-N-(4-(5-(difluoromethyl)-1,3,4-oxadiazol-2-yl)benzyl)-N-phenylethane-1-sulfonamide] | 526 fold | 190 nM
13 | O=S(=O)(CCN1CCN(c2ccccc2)CC1)N(Cc1ccc(-c2nnc(C(F)F)o2)cc1)c1ccccc1 [Compound 11766, N-(4-(5-(difluoromethyl)-1,3,4-oxadiazol-2-yl)benzyl)-N-phenyl-2-(4-phenylpiperazin-1-yl)ethane-1-sulfonamide] | 319 fold | 313 nM
14 | O=S(=O)(CCN1CCN(c2ccccn2)CC1)N(Cc1ccc(-c2nnc(C(F)F)o2)cc1)c1ccccc1 [Compound 11767, N-(4-(5-(difluoromethyl)-1,3,4-oxadiazol-2-yl)benzyl)-N-phenyl-2-(4-(pyridin-2-yl)piperazin-1-yl)ethane-1-sulfonamide] | 844 fold | 118 nM
15 | O=S(=O)(CCN1CCN(c2ccncc2)CC1)N(Cc1ccc(-c2nnc(C(F)F)o2)cc1)c1ccccc1 [Compound 11768, N-(4-(5-(difluoromethyl)-1,3,4-oxadiazol-2-yl)benzyl)-N-phenyl-2-(4-(pyridin-4-yl)piperazin-1-yl)ethane-1-sulfonamide] | 2610 fold | 38.3 nM

Other lines, results leading:

Row | HDAC6 selectivity (fold) | IC50 | Structure (SMILES)
16 | 868 fold | 115 nM | O=S(=O)(CCN1CCCOCC1)N(Cc1ccc(-c2nnc(C(F)F)o2)cc1)c1ccccc1 [Compound 11752, N-(4-(5-(difluoromethyl)-1,3,4-oxadiazol-2-yl)benzyl)-2-(1,4-oxazepan-4-yl)-N-phenylethane-1-sulfonamide]
17 | 953 fold | 105 nM | O=S(=O)(CCN1CC[C@@H](F)C1)N(Cc1ccc(-c2nnc(C(F)F)o2)cc1)c1ccccc1 [Compound 11753, (R)—N-(4-(5-(difluoromethyl)-1,3,4-oxadiazol-2-yl)benzyl)-2-(3-fluoropyrrolidin-1-yl)-N-phenylethane-1-sulfonamide]
18 | 1420 fold | 70.4 nM | CN(C)[C@@H]1CCN(CCS(=O)(=O)N(Cc2ccc(-c3nnc(C(F)F)o3)cc2)c2ccccc2)C1 [Compound 11754, (R)—N-(4-(5-(difluoromethyl)-1,3,4-oxadiazol-2-yl)benzyl)-2-(3-(dimethylamino)pyrrolidin-1-yl)-N-phenylethane-1-sulfonamide]
19 | 1377 fold | 72.6 nM | CN(C)[C@H]1CCN(CCS(=O)(=O)N(Cc2ccc(-c3nnc(C(F)F)o3)cc2)c2ccccc2)C1 [Compound 11755, (S)—N-(4-(5-(difluoromethyl)-1,3,4-oxadiazol-2-yl)benzyl)-2-(3-(dimethylamino)pyrrolidin-1-yl)-N-phenylethane-1-sulfonamide]
20 | 1447 fold | 69.1 nM | CCN1CCN(CCS(=O)(=O)N(Cc2ccc(-c3nnc(C(F)F)o3)cc2)c2ccccc2)CC1 [Compound 11757, N-(4-(5-(difluoromethyl)-1,3,4-oxadiazol-2-yl)benzyl)-2-(4-ethylpiperazin-1-yl)-N-phenylethane-1-sulfonamide]
21 | 948 fold | 105 nM | O=S(=O)(CCN1CCC(N2CCOCC2)CC1)N(Cc1ccc(-c2nnc(C(F)F)o2)cc1)c1ccccc1 [Compound 11763, N-(4-(5-(difluoromethyl)-1,3,4-oxadiazol-2-yl)benzyl)-2-(4-morpholinopiperidin-1-yl)-N-phenylethane-1-sulfonamide]
22 | 731 fold | 137 nM | Cc1noc(C2CCN(CCS(=O)(=O)N(Cc3ccc(-c4nnc(C(F)F)o4)cc3)c3ccccc3)CC2)n1 [Compound 11764, N-(4-(5-(difluoromethyl)-1,3,4-oxadiazol-2-yl)benzyl)-2-(4-(3-methyl-1,2,4-oxadiazol-5-yl)piperidin-1-yl)-N-phenylethane-1-sulfonamide]

— patent US10538498B2, “1,3,4-oxadiazole sulfonamide derivative compounds as histone deacetylase 6 inhibitor, and the pharmaceutical composition comprising the same” (Chong Kun Dang Pharmaceutical Corp., priority 2015, dated 2020)
